Source: US20070253957A1, “Substituted N-Aryl-1H-Pyrazolo[3,4-B]Quinolin-4-Amines and Analogs as Activators of Caspases and Inducers of Apoptosis” (Cytovia, Inc., priority 2004, published 2007)

Tested on: T-47D
Test: Caspase cascade activation assay (N-(Ac-DEVD)-N'-ethoxycarbonyl-R110 fluorogenic substrate) in T-47D cells
Format: cell-based, Human
Details: 24 h incubation; for Caspase Activity Ratio: ratio of net RFU (T=3 h) to that of control samples, 0.16 to 10 μM final; for EC50: Homo sapiens, T47D, sigmoidal dose-response calculation, read-out: Caspase Potency EC50
Description: Human breast cancer cell lines T-47D was grown according to media component mixtures designated by American Type Culture Collection+10% FCS (mvitrogen Corporation), in a 5% CO2-95% humidity incubator at 37° C. T-47D and ZR-75-1 cells were maintained at a cell density between 30 and 80% confluency and for HL-60 at a cell density of 0.1 to 0.6×10^6 cells/mL. Cells were harvested at 600×g and resuspended at 0.65×10^6 cells/mL into appropriate media+10% FCS. An aliquot of 45 μL of cells was added to a well of a 96-well microtiter plate containing 5 μL of a 10% DMSO in RPMI-1640 media solution containing 1.6 to 100 μM of 1,3-dimethyl-N-(4-methoxyphenyl)-1H-pyrazolo[3,4-b]quinolin-4-amine or other test compound (0.16 to 10 μM final). An aliquot of 45 μL of cells was added to a well of a 96-well microtiter plate containing 5 μL of a 10% DMSO in RPMI-1640 media solution without test compound as the control sample. The samples were mixed by agitation and then incubated at 37° C. for 24 h in a 5% CO2-95% humidity incubator. After incubation, the samples were removed from the incubator and 50 μL of a solution containing 20 μM of N-(Ac-DEVD)-N′-ethoxycarbonyl-R110 fluorogenic substrate (SEQ ID NO:1) (Cytovia, Inc.; U.S. Pat. No. 6,335,429), 20% sucrose (Sigma), 20 mM DTT (Sigma), 200 mM NaCl (Sigma), 40 mM Na PIPES buffer pH 7.2 (Sigma), and 500 μg/mL lysolecithin (Calbiochem) was added. The samples were mixed by agitation and incubated at room temperature. Using a fluorescent plate reader (Model 1420 Wallac Instruments), an initial reading (T=0) was made about 1-2 min after addition of the substrate solution, employing excitation at 485 nm and emission at 530 nm, to determine the background fluorescence of the control sample. After about 3 h of incubation, the samples were read for fluorescence as above (T=3 h).
The Relative Fluorescence Unit values (RFU) were used to calculate the sample readings as follows: RFU(T=3h)−Control RFU(T=0)=Net RFU(T=3h)
The activity of caspase cascade activation was determined by the ratio of the net RFU value for 1,3-dimethyl-N-(4-methoxyphenyl)-1H-pyrazolo[3,4-b]quinolin-4-amine to that of control samples. The EC50 (nM) was determined by a sigmoidal dose-response calculation (Prism 2.0, GraphPad Software Inc.).

SMILES | EC50 | Caspase Activity Ratio
COc1cccc(Nc2c3ccccc3nc3c2c(C)nn3C)c1 [Example 8, 1,3-Dimethyl-N-(3-methoxyphenyl)-1H-pyrazolo[3,4-b]quinolin-4-amine] | 5.83 µM | 3.9
Cc1ccc2nc3c(c(Nc4cccc(O)c4)c2c1)CCC3 [N-(3-Hydroxyphenyl)-7-methyl-2,3-dihydro-1H-cyclopenta[b]quinolin-9-amine] | 5.53 µM | 3.7
Cc1nn(C)c2nc3ccccc3c(Nc3ccc(C(=O)C(F)(F)F)cc3)c12 [Example 48, 1,3-Dimethyl-N-(4-(2,2,2-trifluoroacetyl)phenyl)-1H-pyrazolo[3,4-b]quinolin-4-amine] | > 10 µM | 1.1
COC(=O)c1cccc(Nc2c3c(nc4ccccc24)CCC3)c1 [N-(3-(Methoxycarbonyl)phenyl)-2,3-dihydro-1H-cyclopenta[b]quinolin-9-amine] | 3.04 µM | 5.6
Cc1nn(C)c2nc3ccccc3c(Nc3ccc(N)cc3)c12.Cl [Example 45, N-(4-Aminophenyl)-1,3-dimethyl-1H-pyrazolo[3,4-b]quinolin-4-amine hydrochloride] | > 10 µM | 1.1
CCOC(=O)c1ccc(N(C)c2c3c(nc4ccccc24)CCC3)cc1 [Example 17, N-(4-(Ethoxycarbonyl)phenyl)-N-methyl-2,3-dihydro-1H-cyclopenta[b]quinolin-9-amine] | 5.12 µM | 9.3
Cc1nn(C)c2nc3ccccc3c(Nc3ccc(C(=O)O)cc3)c12 [Example 47, N-(4-Carboxylphenyl)-1,3-dimethyl-1H-pyrazolo[3,4-b]quinolin-4-amine] | > 10 µM | 1.1
Cc1nn(C)c2nc3ccccc3c(Nc3ccc(N=[N+]=[N-])cc3)c12 [Example 46, N-(4-Azidophenyl)-1,3-dimethyl-1H-pyrazolo[3,4-b]quinolin-4-amine] | > 10 µM | 1.1
CCOC(=O)c1ccc(Nc2c3c(nc4ccccc24)CCC3)cc1 [N-(4-(Ethoxycarbonyl)phenyl)-2,3-dihydro-1H-cyclopenta[b]quinolin-9-amine] | 1.18 µM | 9.5
Cc1nn(C)c2nc3ccccc3c(Nc3ccc(C(N)=O)cc3)c12 [Example 6, N-(4-Carbamoylphenyl)-1,3-dimethyl-1H-pyrazolo[3,4-b]quinolin-4-amine] | > 10 µM | 1.0
Cc1nn(C)c2nc3ccccc3c(Nc3ccc([S+](C)[O-])cc3)c12 (stereo not drawn) [Example 39, 1,3-Dimethyl-N-(4-methylsulfinylphenyl)-1H-pyrazolo[3,4-b]quinolin-4-amine] | > 10 µM | 1.1
CC(=O)c1ccc(Nc2c3ccccc3nc3c2c(C(C)C)nn3C)cc1 [Example 21, N-(4-Acetylphenyl)-1-methyl-3-isopropyl-1H-pyrazolo[3,4-b]quinolin-4-amine] | > 10 µM | 1.1
CCc1ccccc1Nc1c2c(nc3ccccc13)CCC2 [N-(2-Ethylphenyl)-2,3-dihydro-1H-cyclopenta[b]quinolin-9-amine] | 2.96 µM | 6.5
Cc1nn(C)c2nc3ccccc3c(Nc3ccc(C(=O)C(C)C)cc3)c12 [Example 44, N-(4-Isobutyrylphenyl)-1,3-dimethyl-1H-pyrazolo[3,4-b]quinolin-4-amine] | 0.248 µM | 4.3

More lines, main results first:

EC50 | SMILES | Caspase Activity Ratio
0.314 µM | CC(=O)c1ccc(Nc2c3ccccc3nc3c2c(C)nn3C)cc1 [N-(4-Acetylphenyl)-1,3-dimethyl-1H-pyrazolo[3,4-b]quinolin-4-amine] | 4.2
2.45 µM | COc1ccccc1Nc1c2c(nc3ccccc13)CCC2 [N-(2-Methoxyphenyl)-2,3-dihydro-1H-cyclopenta[b]quinolin-9-amine] | 7.5
0.841 µM | CC(=O)c1ccc(Nc2c3ccccc3nc3c2cnn3C)cc1 [Example 18, N-(4-Acetylphenyl)-1-methyl-1H-pyrazolo[3,4-b]quinolin-4-amine] | 8.5
4.23 µM | COc1ccc(Sc2c3ccccc3nc3c2c(C)nn3C)cc1 [Example 12, 4-(4-Methoxyphenylthio)-1,3-dimethyl-1H-pyrazolo[3,4-b]quinoline] | 9.3
> 10 µM | Cc1nn(C)c2nc3ccccc3c(Nc3ccc(S(C)(=O)=O)cc3)c12 [Example 34, 1,3-Dimethyl-N-(4-methylsulfonylphenyl)-1H-pyrazolo[3,4-b]quinolin-4-amine] | 1.1
> 10 µM | CC(=O)c1cccc(Nc2c3ccccc3nc3c2c(C)nn3C)c1 [Example 5, N-(3-Acetylphenyl)-1,3-dimethyl-1H-pyrazolo[3,4-b]quinolin-4-amine] | 1.0
4.32 µM | CC(=O)c1ccc(Oc2c3ccccc3nc3c2c(C)nn3C)cc1 [Example 13, 4-(4-Acetylphenoxy)-1,3-dimethyl-1H-pyrazolo[3,4-b]quinoline] | 7.5
> 10 µM | CC(C)C(=O)c1cccc(N(C)c2c3c(nc4ccccc24)CCC3)c1 [Example 16, N-(3-Isobutyrylphenyl)-N-methyl-2,3-dihydro-1H-cyclopenta[b]quinolin-9-amine] | 1.1
> 10 µM | COc1ccc(Nc2c3ccccc3nc3c2c(C)nn3C)cn1 [Example 7, 1,3-Dimethyl-N-(6-methoxypyridin-3-yl)-1H-pyrazolo[3,4-b]quinolin-4-amine] | 1.0
> 10 µM | CC(=O)Nc1ccc(Nc2c3ccccc3nc3c2c(C)nn3C)cc1 [Example 32, N-(4-Acetamidophenyl)-1,3-dimethyl-1H-pyrazolo[3,4-b]quinolin-4-amine] | 1.1
0.304 µM | CC(=O)c1cccc(Nc2c3c(nc4ccccc24)CCC3)c1 [N-(3-Acetylphenyl)-2,3-dihydro-1H-cyclopenta[b]quinolin-9-amine] | 8.8
0.34 µM | COC(=O)c1ccc(Nc2c3c(nc4ccccc24)CCC3)cc1 [N-(4-(Methoxycarbonyl)phenyl)-2,3-dihydro-1H-cyclopenta[b]quinolin-9-amine] | 4.8
> 10 µM | CCc1ccc(Nc2c3ccccc3nc3c2c(C)nn3C)cc1 [Example 22, N-(4-Ethylphenyl)-1,3-dimethyl-1H-pyrazolo[3,4-b]quinolin-4-amine] | 1.1
